Assays:
Type in all cases: biochemical
[1] = target: T1, human JAK1 (aa 850-1154) catalytic domain (Homo sapiens, UniProt P23458); test: In vitro JAK kinase assay (TR-FRET), JAK1; conditions: GST-fusion catalytic domain; ATP 3 μM; poly (GT)-Biotin 60 nM; 30 minutes at room temperature
T1 construct: human JAK1 (aa 850-1154); GST (N); purchased Carna Biosciences; host or cells: baculovirus expression system
Description: (§1) Compounds were screened for their ability to inhibit JAK1, JAK2 and JAK3 using the assays as indicated below.
(§2) The catalytic domains of human JAK1 (aa 850-1154), JAK2 (aa 826-1132), JAK3 (aa 795-1124) and Tyk2 (aa 871-1187) were expressed as N-terminal GST-fusion proteins using a baculovirus expression system and were purchased from Carna Biosciences. The enzymatic activity was assayed using as substrate a biotinylated peptide, poly (GT)-Biotin (CisBio). The peptide concentration in the reactions was 60 nM for JAK1, 20 nM for JAK2, 140 nM for JAK3 and 50 nM for Tyk2. The degree of phosphorylation was detected by TR-FRET (time-resolved fluorescence energy transfer).
(§3) IC50s of compounds were measured for each kinase in a reaction mixture containing the enzyme, ATP and the peptide in 8 mM MOPS (pH 7.0), 10 mM MgCl2, 0.05% β-mercaptoethanol, 0.45 mg/mL BSA. The ATP concentration in the reactions was 3 μM for JAK1, 0.2 μM for JAK2, 0.6 μM for JAK3 and 1.8 μM for Tyk2. The enzymatic reactions took place for 30 minutes at room temperature. Then, the reactions were stopped with 20 μL of quench detection buffer (50 mM HEPES, 0.5 M KF, EDTA 0.25 M, 0.1% (w/v) BSA, pH 7.5) containing 0.115 μg/mL of anti-phosphoTyr (PT66)-Cryptate (CisBio) and a variable concentration of SA-XL665 (CisBio) to keep the SA-B ratio constant. Incubate for 3 h and read on Victor 2V spectrofluorometer (PerkinElmer) set to read fluorescence resonance energy transfer.

[2] = target: T2, human JAK2 (aa 826-1132) catalytic domain (Homo sapiens, UniProt O60674); test: In vitro JAK kinase assay (TR-FRET), JAK2; conditions: GST-fusion catalytic domain; ATP 0.2 μM; poly (GT)-Biotin 20 nM; 30 minutes at room temperature
T2 construct: JAK2 (aa 826-1132); GST (N); purchased Carna Biosciences; host or cells: baculovirus expression system
Description: as §1, §2, §3

[3] = target: T3, human JAK3 (aa 795-1124) catalytic domain (Homo sapiens, UniProt P52333); test: In vitro JAK kinase assay (TR-FRET), JAK3; conditions: GST-fusion catalytic domain; ATP 0.6 μM; poly (GT)-Biotin 140 nM; 30 minutes at room temperature
T3 construct: JAK3 (aa 795-1124); GST (N); purchased Carna Biosciences; host or cells: baculovirus expression system
Description: as §1, §2, §3

T2 sequence (O60674 826-1132): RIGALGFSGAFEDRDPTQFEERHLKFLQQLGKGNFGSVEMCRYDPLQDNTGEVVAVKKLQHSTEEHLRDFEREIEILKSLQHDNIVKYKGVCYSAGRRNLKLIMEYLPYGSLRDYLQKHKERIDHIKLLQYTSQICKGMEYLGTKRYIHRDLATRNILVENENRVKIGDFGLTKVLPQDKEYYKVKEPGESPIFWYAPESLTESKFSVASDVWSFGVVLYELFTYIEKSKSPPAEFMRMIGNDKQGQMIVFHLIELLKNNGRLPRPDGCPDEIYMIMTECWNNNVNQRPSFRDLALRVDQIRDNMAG
T3 sequence (P52333 795-1124): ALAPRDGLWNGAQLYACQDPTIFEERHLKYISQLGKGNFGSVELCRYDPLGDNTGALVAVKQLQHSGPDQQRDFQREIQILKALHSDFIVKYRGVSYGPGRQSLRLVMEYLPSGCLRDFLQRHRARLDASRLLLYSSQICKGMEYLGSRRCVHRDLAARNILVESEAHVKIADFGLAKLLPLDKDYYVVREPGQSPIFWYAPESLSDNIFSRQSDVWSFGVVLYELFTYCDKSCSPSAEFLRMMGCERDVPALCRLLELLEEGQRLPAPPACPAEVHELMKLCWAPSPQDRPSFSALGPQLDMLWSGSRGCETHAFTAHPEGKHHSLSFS
T1 sequence (P23458 850-1154): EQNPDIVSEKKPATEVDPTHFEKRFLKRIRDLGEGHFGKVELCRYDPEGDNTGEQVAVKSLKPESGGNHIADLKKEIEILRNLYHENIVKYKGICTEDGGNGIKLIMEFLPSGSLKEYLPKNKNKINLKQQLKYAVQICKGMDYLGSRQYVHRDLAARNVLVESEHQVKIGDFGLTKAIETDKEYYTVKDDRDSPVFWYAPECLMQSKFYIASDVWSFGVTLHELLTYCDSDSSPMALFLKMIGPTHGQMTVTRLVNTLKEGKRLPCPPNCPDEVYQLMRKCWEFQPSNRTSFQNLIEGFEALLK

SMILES | IC50 [1] [nM] | IC50 [2] [nM] | IC50 [3] [nM]
CN(CC#N)C(=O)N1CCC[C@@H](Nc2ccnc(-c3cnc4ccc(F)cn34)n2)C1 [Example 68, (3R)—N-(Cyanomethyl)-3-{[2-(6-fluoroimidazo[1,2-a]pyridin-3-yl)pyrimidin-4-yl]amino}-N-methylpiperidine-1-carboxamide] | 100 to 1000 | < 100 | < 100
O=C(c1cn[nH]c1)N1CCC[C@@H](Nc2ccnc(-c3cnc4ccc(F)cn34)n2)C1 [Example 67, 2-(6-Fluoroimidazo[1,2-a]pyridin-3-yl)-N-[(3R)-1-(1H-pyrazol-4ylcarbonyl)piperidin-3-yl]pyrimidin-4-amine] | 100 to 1000 | < 100 | 100 to 1000
CCCN1CC[C@@H](Nc2ccnc(-c3cnc4ccc(F)cn34)n2)C1=O [Example 89, (R)-3-(2-(6-Fluoroimidazo[1,2-a]pyridin-3-yl)pyrimidin-4-ylamino)-1-propyl pyrrolidin-2-one] | > 1000 | 100 to 1000 | > 1000
CC(C)S(=O)(=O)N1CCC[C@@H](Nc2ccnc(-c3cnc4ccc(C#N)cn34)n2)C1 [Example 45, 3-(4-{[(3R)-1-(Isopropylsulfonyl)piperidin-3-yl]amino}pyrimidin-2-yl)imidazo[1,2-a]pyridine-6-carbonitrile] | > 1000 | 100 to 1000 | 100 to 1000
CC(C)(C)CNc1nc(-c2cnc3ccc(C#N)cn23)ncc1-c1cccnc1 [Example 13, 3-{4-[(2,2-Dimethylpropyl)amino]-5-pyridin-3-ylpyrimidin-2-yl}imidazo[1,2-a]pyridine-6-carbonitrile] | > 1000 | 100 to 1000 | 100 to 1000
CCN(CC)C(=O)[C@H]1CCCN1c1ccnc(-c2cnc3ccc(F)cn23)n1 [Example 92, (R)—N,N-Diethyl-1-(2-(6-fluoroimidazo[1,2-a]pyridin-3-yl)pyrimidin-4-yl)pyrrolidine-2-carboxamide] | 100 to 1000 | < 100 | > 1000
CCC[C@H](Nc1nc(-c2cnc3ccc(F)cn23)ncc1C(N)=O)c1ccc(F)cc1 [Example 151, (S)-2-(6-Fluoroimidazo[1,2-a]pyridin-3-yl)-4-(1-(4-fluorophenyl)butylamino) pyrimidine-5-carboxamide] | 100 to 1000 | < 100 | < 100
Cc1cnc(-c2cnc3ccc(F)cn23)nc1N[C@@H]1CCCN(C(=O)CC(F)(F)F)C1 [Example 80, 2-(6-Fluoroimidazo[1,2-a]pyridin-3-yl)-5-methyl-N-[(3R)-1-(3,3,3-trifluoropropanoyl)piperidin-3-yl]pyrimidin-4-amine] | < 100 | < 100 | < 100
Nc1cnc(-c2cnc3ccc(F)cn23)nc1NC1CCCc2ncccc21 (stereo not drawn) [Example 137, 2-(6-Fluoroimidazo[1,2-a]pyridin-3-yl)-N^4-(5,6,7,8-tetrahydroquinolin-5-yl)pyrimidine-4,5-diamine] | > 1000 | < 100 | 100 to 1000
Fc1ccc2ncc(-c3nccc(N4CCCC4c4ccccn4)n3)n2c1 (stereo not drawn) [Example 90, 6-Fluoro-3-(4-(2-(pyridin-2-yl)pyrrolidin-1-yl)pyrimidin-2-yl)imidazo[1,2-a]pyridine] | > 1000 | < 100 | < 100
O=C(Cc1ccc(CO)cc1)N1CCC[C@@H](Nc2ccnc(-c3cnc4ccc(F)cn34)n2)C1 [Example 107, (R)-1-(3-(2-(6-Fluoroimidazo[1,2-a]pyridin-3-yl)pyrimidin-4-ylamino)piperidin-1-yl)-2-(4-(hydroxymethyl)phenyl)ethanone] | > 1000 | < 100 | > 1000
N#CCC(=O)N1CCCN(c2ccnc(-c3cnc4ccc(C#N)cn34)n2)CC1 [Example 82, 3-{4-[4-(Cyanoacetyl)-1,4-diazepan-1-yl]pyrimidin-2-yl}imidazo[1,2-a]pyridine-6-carbonitrile] | > 1000 | 100 to 1000 | > 1000
CC(C)(C)CNc1nc(-c2cnc3ccc(C#N)cn23)nc2ccccc12 [Example 25] | 100 to 1000 | 100 to 1000 | 100 to 1000

Source: patent publication US20130216498A1, “IMIDAZOPYRIDINE DERIVATIVES AS JAK INHIBITORS” (priority 2009, published 2013)
